Measured values published in patent US7875607B2, “7,8-bicycloakyl-chroman derivatives” (Ampere Life Sciences, Inc., priority 2004, dated 2011).

Assays:
[1] = system: dopaminergic neuronal cell line; assay: High glutamate-induced oxidative stress assay (HGOS); format: cell-based; details: Mus musculus; 30 mM glutamate, 16 hrs; read-out: EC50, protection against HGOS cell injury and cell death
Procedure, shortened: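 Mouse dopaminergic cells (passage ≤ p11) were grown 72 h at 33 °C, washed in HBSS, then exposed 16 h at 37 °C to compounds in DMEM-No Glu with 1 mM glucose and 30 mM glutamate. Surviving cells were stained 30 min with 5 μM Cell Tracker Green and fluorescence read at 485/538 nm.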

[2] = system: ELAM (E-selectin) expression in endothelial cells; assay: Cell-ELAM assay; format: cell-based; details: 10 μg/ml LPS and 100 pg/ml IL-1β, 6 hours
Text: In vitro cell-based assays for inflammation are well known in the art, for example e-selectin (also named Endothelial Leukocyte Adhesion Molecule or ELAM) or C-reactive protein (CRP). The ELAM assay measures in vitro activity of the test compounds in reducing expression of ELAM in activated endothelial cells. Briefly, endothelial cells are […] by adding known activators such as lipopolysaccharides, TNF or IL-1, alone or in some combination. Activated cells produce ELAM, which can be measured using, for example, an E-selectin monoclonal antibody-based ELISA assay. Similarly the CRP assay measures in vitro activity of test compounds in reducing expression of CRP in Human Hep3B epithelial cells. The activated cells produce CRP, which can be measured with a CRP ELISA assay.
Endothelial-Leukocyte Adhesion Molecule (ELAM), also known as E-selectin, was expressed on the surface of endothelial cells. In this assay, lipopolysaccharide (LPS) and IL-1β were used to stimulate the expression of ELAM; test agents were tested for their abilities to reduce this expression, in accordance with studies showing that reduction of leukocyte adhesion to endothelial cell surface was associated with decreased cellular damage (e.g., Takada, M., Et al., Transplantation 64: 1520-25, 1997; Steinberg, J. B., et al., J. Heart Lung Trans. 13:306-313, 1994).
Endothelial cells may be selected from any of a number of sources and cultured according to methods known in the art; including, for example, coronary artery endothelial cells, human brain microvascular endothelial cells (HBMEC; Hess, D. C., et al., Neurosci. Lett. 213(1): 37-40, 1996), or lung endothelial cells. Cells were conveniently cultured in 96-well plates. Cells were stimulated by adding a solution to each well containing 10 μg/ml LPS and 100 pg/ml IL-1β for 6 hours in the presence of test agent (specific concentrations and time may be adjusted depending on the cell type) Treatment buffer was removed and replaced with pre-warmed Fixing Solution® (100 μl/well) for 25 minutes at room temperature. Cells were then washed 3×, then incubated with Blocking Buffer (PBS+2% FBS) for 25 minutes at room temperature. Blocking Buffer containing Monoclonal E-Selectin Antibody (1:750, Sigma Catalog # S-9555) was added to each well. Plates were sealed and stored at 4° overnight. Plates were washed 4× with 160 μL Blocking Buffer per well. Second Antibody-HRP diluted 1:5000 in Blocking Buffer was then added (100 μL/well), and plates were incubated at room temperature (protected from light) for two hours. Plates were then washed 4× with Blocking Buffer before addition of 100 μL of ABTS Substrate solution at room temperature (Zymed, Catalog # 00-2024). Wells were allowed to develop for 35 minutes, before measurement at 402 nm in a Fluoroskan® Reader with shake program for 10 seconds. Positive results were recorded as a decrease in ELAM concentration in tested wells, as compared to control wells.

| SMILES | EC50 [1] | EC50 [2] |
| --- | --- | --- |
| CC1(C)C=Cc2cc(O)c3c(c2O1)C1CCC3CC1 [2,2-Dimethyl-7,8,9,10-tetrahydro-7,10-ethano-2H-benzo[h]chromen-6-ol] | ≤ 1 µM |  |
| CC(C)CSCCCC1(C)CCc2cc(O)c3c(c2O1)C1CCC3C1 (stereo not drawn) [2-(3-isobutylsulfanyl-propyl)-2-methyl-3,4,7,8,9,10-hexahydro-7,10-methano-2H-benzo[h]chromen-6-ol] | ≤ 1 µM | ≤ 30 µM |
| CC(C)=CCc1c(O)c2c(c3c1CCC(C)(C)O3)C1CCC2C1 (stereo not drawn) [2,2-Dimethyl-5-(3-methyl-but-2-enyl)-3,4,7,8,9,10-hexahydro-7,10-methano-2H-benzo[h]chromen-6-ol] | ≤ 1 µM | ≤ 30 µM |
| CC(C)CCc1c(O)c2c(c3c1CCC(C)(C)O3)C1CCC2C1 (stereo not drawn) [2,2-Dimethyl-5-(3-methyl-butyl)-3,4,7,8,9,10-hexahydro-7,10-methano-2H-benzo[h]chromen-6-ol] | ≤ 1 µM | ≤ 30 µM |
| CC1(CCCCl)CCc2cc(O)c3c(c2O1)C1CCC3C1 (stereo not drawn) [2-(3-Chloro-propyl)-2-methyl-3,4,7,8,9,10-hexahydro-7,10-methano-2H-benzo[h]chromen-6-ol] | ≤ 1 µM | ≤ 30 µM |
| CC1(CCCSc2nccs2)CCc2cc(O)c3c(c2O1)C1CCC3C1 (stereo not drawn) [2-Methyl-2-[3-(thiazol-2-ylsulfanyl)-propyl]-3,4,7,8,9,10-hexahydro-7,10-methano-2H-benzo[h]chromen-6-ol] | ≤ 1 µM | ≤ 30 µM |
| CC1(C)CCc2cc(O)c3c(c2O1)C1CCC3CC1 [2,2-Dimethyl-3,4,7,8,9,10-hexahydro-7,10-ethano-2H-benzo[h]chromen-6-ol] |  | ≤ 30 µM |
